System: 653999-131-R-J2-PDC complex spheroids, growth inhibition
Experiment: Anticancer human tumor 653999-131-R-J2-PDC patient-derived lung adenocarcinoma cell line growth inhibition [RAS]
Conditions: for viability, T/C: stronger effect = lower value
How it was run: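 Multi-cell-type spheroids: tumor cells plus HUVEC endothelial cells and mesenchymal stem cells. RAS-pathway inhibitors were combined with targeted agents, each dosed in half-log steps down from clinical Cmax, or from 10 microM when Cmax was unknown.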

[1] = curve of first compound, second compound 0.000949 µM
[2] = curve of first compound, second compound 0.003 µM
[3] = curve of first compound, second compound 0.00949 µM
[4] = curve of first compound, second compound 0.03 µM
[5] = curve of first compound, second compound 0.0949 µM
[6] = curve of first compound, second compound 0.3 µM
[7] = second compound 0.000949 µM, first compound 0.00316 µM
[8] = second compound 0.000949 µM, first compound 0.01 µM
[9] = second compound 0.000949 µM, first compound 0.0316 µM
[10] = second compound 0.000949 µM, first compound 0.1 µM
[11] = second compound 0.003 µM, first compound 0.00316 µM
[12] = second compound 0.003 µM, first compound 0.01 µM
[13] = second compound 0.003 µM, first compound 0.0316 µM
[14] = second compound 0.003 µM, first compound 0.1 µM
[15] = second compound 0.00949 µM, first compound 0.00316 µM
[16] = second compound 0.00949 µM, first compound 0.01 µM
[17] = second compound 0.00949 µM, first compound 0.0316 µM
[18] = second compound 0.00949 µM, first compound 0.1 µM
[19] = second compound 0.03 µM, first compound 0.00316 µM
[20] = second compound 0.03 µM, first compound 0.01 µM
[21] = second compound 0.03 µM, first compound 0.0316 µM
[22] = second compound 0.03 µM, first compound 0.1 µM
[23] = second compound 0.0949 µM, first compound 0.00316 µM
[24] = second compound 0.0949 µM, first compound 0.01 µM
[25] = second compound 0.0949 µM, first compound 0.0316 µM
[26] = second compound 0.0949 µM, first compound 0.1 µM
[27] = second compound 0.3 µM, first compound 0.00316 µM
[28] = second compound 0.3 µM, first compound 0.01 µM
[29] = second compound 0.3 µM, first compound 0.0316 µM
[30] = second compound 0.3 µM, first compound 0.1 µM
[31] = second compound 0.000949 µM, first compound 0.316 µM
[32] = second compound 0.000949 µM, first compound 1 µM
[33] = second compound 0.003 µM, first compound 0.316 µM
[34] = second compound 0.003 µM, first compound 1 µM
[35] = second compound 0.00949 µM, first compound 0.316 µM
[36] = second compound 0.00949 µM, first compound 1 µM
[37] = second compound 0.03 µM, first compound 0.316 µM
[38] = second compound 0.03 µM, first compound 1 µM
[39] = second compound 0.0949 µM, first compound 0.316 µM
[40] = second compound 0.0949 µM, first compound 1 µM
[41] = second compound 0.3 µM, first compound 0.316 µM
[42] = second compound 0.3 µM, first compound 1 µM
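Note: spheroids exposed to the agents for seven days before the readout.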

CC(C)n1nc(-c2ccc3oc(N)nc3c2)c2c(N)ncnc21 + CCn1c(-c2cccnc2C(C)OC)c2c3cc(ccc31)N1CCOC(CC(NC(=O)C(C(C)C)N(C)C(=O)C3(F)CCN(C(=O)C#CC(C)(C)N(C)C)CC3)C(=O)N3CCCC(N3)C(=O)OCC(C)(C)C2)C1
IC50 [1]: 21.8 nM
IC50 [2]: 20.1 nM
IC50 [3]: 20.1 nM
IC50 [4]: 22.1 nM
IC50 [5]: 24.6 nM
IC50 [6]: 17.7 nM
viability, T/C (second compound 0.000949 µM, first compound 0.000316 µM): 85.9%
viability, T/C (second compound 0.000949 µM, first compound 0.001 µM): 95.4%
viability, T/C [7]: 82.9%
viability, T/C [8]: 66%
viability, T/C [9]: 42.9%
viability, T/C [10]: 28.4%
viability, T/C (second compound 0.003 µM, first compound 0.000316 µM): 95.8%
viability, T/C (second compound 0.003 µM, first compound 0.001 µM): 104%
viability, T/C [11]: 87.3%
viability, T/C [12]: 62.7%
viability, T/C [13]: 42.9%
viability, T/C [14]: 34%
viability, T/C (second compound 0.00949 µM, first compound 0.000316 µM): 107%
viability, T/C (second compound 0.00949 µM, first compound 0.001 µM): 98.8%
viability, T/C [15]: 94.5%
viability, T/C [16]: 63.9%
viability, T/C [17]: 41.1%
viability, T/C [18]: 32.9%
viability, T/C (second compound 0.03 µM, first compound 0.000316 µM): 100%
viability, T/C (second compound 0.03 µM, first compound 0.001 µM): 93.8%
viability, T/C [19]: 76.9%
viability, T/C [20]: 59.3%
viability, T/C [21]: 47.4%
viability, T/C [22]: 29.1%
viability, T/C (second compound 0.0949 µM, first compound 0.000316 µM): 97.7%
viability, T/C (second compound 0.0949 µM, first compound 0.001 µM): 95.8%
viability, T/C [23]: 79.4%
viability, T/C [24]: 68.1%
viability, T/C [25]: 44%
viability, T/C [26]: 31.8%
viability, T/C (second compound 0.3 µM, first compound 0.000316 µM): 92.4%
viability, T/C (second compound 0.3 µM, first compound 0.001 µM): 93.8%
viability, T/C [27]: 81.7%
viability, T/C [28]: 54.6%
viability, T/C [29]: 45.4%
viability, T/C [30]: 44.9%

O=C(c1ccc(F)c(F)c1Nc1ccc(I)cc1F)N1CC(O)([C@@H]2CCCCN2)C1 + CCn1c(-c2cc(N3CCN(C)CC3)cnc2C(C)OC)c2c3cc(ccc31)-c1csc(n1)CC(NC(=O)C1CC1C)C(=O)N1CCCC(N1)C(=O)OCC(C)(C)C2
IC50 [1]: 43.1 nM
IC50 [2]: 18 nM
IC50 [3]: 7.57 nM
IC50 [4]: < 3.16 nM
IC50 [5]: < 3.16 nM
IC50 [6]: < 3.16 nM
viability, T/C [7]: 77.8%
viability, T/C [8]: 73.4%
viability, T/C [9]: 48.3%
viability, T/C [10]: 43.1%
viability, T/C [31]: 14.6%
viability, T/C [32]: 4.82%
viability, T/C [11]: 52.7%
viability, T/C [12]: 54%
viability, T/C [13]: 45.5%
viability, T/C [14]: 34.8%
viability, T/C [33]: 12%
viability, T/C [34]: 4.41%
viability, T/C [15]: 52.2%
viability, T/C [16]: 50.2%
viability, T/C [17]: 34.1%
viability, T/C [18]: 14.4%
viability, T/C [35]: 7.76%
viability, T/C [36]: 3.12%
viability, T/C [19]: 26.6%
viability, T/C [20]: 16.9%
viability, T/C [21]: 15.1%
viability, T/C [22]: 9.74%
viability, T/C [37]: 4.27%
viability, T/C [38]: 3.44%
viability, T/C [23]: 19.7%
viability, T/C [24]: 16.8%
viability, T/C [25]: 12.1%
viability, T/C [26]: 5.71%
viability, T/C [39]: 3.46%
viability, T/C [40]: 2.86%
viability, T/C [27]: 15.9%
viability, T/C [28]: 15%
viability, T/C [29]: 10.6%
viability, T/C [30]: 4.53%
viability, T/C [41]: 4.09%
viability, T/C [42]: 1.86%

CC1(C)CCC(Nc2ncc(C(F)(F)F)c(-c3c[nH]c4c(P(C)(C)=O)c(C#N)ccc34)n2)CN1 (stereo not drawn)
viability, T/C (compound 0.000949 µM): 87.8% [middle of 4 runs]
viability, T/C (compound 0.003 µM): 75.3% [middle of 4 runs]
viability, T/C (compound 0.00949 µM): 72% [middle of 4 runs]
viability, T/C (compound 0.03 µM): 71.6% [middle of 4 runs]
viability, T/C (compound 0.0949 µM): 71.7% [middle of 4 runs]
viability, T/C (compound 0.3 µM): 61.9% [middle of 4 runs]
IC50 (curve of compound): > 300 nM

CC(=O)OC12COC1CC(O)C1(C)C(=O)C(O)C3=C(C)C(OC(=O)C(O)C(NC(=O)OC(C)(C)C)c4ccccc4)CC(O)(C(OC(=O)c4ccccc4)C21)C3(C)C (stereo not drawn) + CCn1c(-c2cccnc2C(C)OC)c2c3cc(ccc31)N1CCOC(CC(NC(=O)C(C(C)C)N(C)C(=O)C3(F)CCN(C(=O)C#CC(C)(C)N(C)C)CC3)C(=O)N3CCCC(N3)C(=O)OCC(C)(C)C2)C1
IC50 [1]: > 10000 nM
IC50 [2]: > 10000 nM
IC50 [3]: > 10000 nM
IC50 [4]: > 10000 nM
IC50 [5]: > 10000 nM
IC50 [6]: < 31.6 nM
viability, T/C [9]: 52.5%
viability, T/C [10]: 52.7%
viability, T/C [31]: 57.8%
viability, T/C [32]: 62.2%
viability, T/C (second compound 0.000949 µM, first compound 3.16 µM): 62.3%
viability, T/C (second compound 0.000949 µM, first compound 10 µM): 66.6%
viability, T/C [13]: 59.5%
viability, T/C [14]: 53.2%
viability, T/C [33]: 53.8%
viability, T/C [34]: 59.7%
viability, T/C (second compound 0.003 µM, first compound 3.16 µM): 70.7%
viability, T/C (second compound 0.003 µM, first compound 10 µM): 76.9%
viability, T/C [17]: 60.5%
viability, T/C [18]: 59.7%
viability, T/C [35]: 53.1%
viability, T/C [36]: 58.7%
viability, T/C (second compound 0.00949 µM, first compound 3.16 µM): 66.3%
viability, T/C (second compound 0.00949 µM, first compound 10 µM): 67.2%
viability, T/C [21]: 57.6%
viability, T/C [22]: 59.9%
viability, T/C [37]: 56.1%
viability, T/C [38]: 54.5%
viability, T/C (second compound 0.03 µM, first compound 3.16 µM): 68%
viability, T/C (second compound 0.03 µM, first compound 10 µM): 64.2%
viability, T/C [25]: 53.6%
viability, T/C [26]: 55%
viability, T/C [39]: 52.3%
viability, T/C [40]: 58.5%
viability, T/C (second compound 0.0949 µM, first compound 3.16 µM): 61%
viability, T/C (second compound 0.0949 µM, first compound 10 µM): 65.1%
viability, T/C [29]: 45.6%
viability, T/C [30]: 49.8%
viability, T/C [41]: 41%
viability, T/C [42]: 52.1%
viability, T/C (second compound 0.3 µM, first compound 3.16 µM): 53.7%
viability, T/C (second compound 0.3 µM, first compound 10 µM): 60.3%
